Consider 23 compounds from patent US8586620B2, “Substituted indole compounds having NOS inhibitory activity” (NeurAxon, Inc., priority 2005, dated 2013).

Where two headings read alike, the source gives them in different places.

Assay [1] has as its target human neuronal constitutive NOS (nNOS) (Homo sapiens (Human), UniProt P29475). The assay is described as follows: Human nNOS enzyme assay, radiometric [3H]L-arginine to [3H]L-citrulline.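 On all read-outs here: recombinant human nNOS expressed in baculovirus-infected Sf9 cells, enzyme activity measured radiometrically as turnover of [3H]L-arginine into [3H]L-citrulline.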 As to conditions: for e/n: ratio eNOSh/nNOSh.
Procedure: (§2) In a radiometric method, NO synthase activity was determined by measuring the conversion of [^3H]L-arginine to [^3H]L-citrulline.
(§3) The total volume of the reaction mixture was 150 μL in every well. […] The reaction was stopped by adding 20 μL of ice-cold buffer containing 100 mM HEPES, 3 mM EGTA, 3 mM EDTA, pH=5.5. [^3H]L-citrulline was separated by DOWEX (ion-exchange resin DOWEX 50 W X 8-400, SIGMA) and the DOWEX was removed by spinning at 12,000 g for 10 min in the centrifuge. […] All assays were performed at least in duplicate. Standard deviations were 10% or less.
In assay [2] the target is human inducible NOS (iNOS) (Homo sapiens (Human), UniProt P35228). Kind of assay: Human iNOS enzyme assay, radiometric. It counts as biochemical. An excerpt: Standard deviations were 10% or less.
Assay [3] deals with human endothelial constitutive NOS (eNOS) (Homo sapiens (Human), UniProt P29474). The assay is described as follows: Human eNOS enzyme assay, radiometric.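 Further: recombinant human eNOS expressed in baculovirus-infected Sf9 cells, activity read as [3H]L-arginine turned into [3H]L-citrulline, the product isolated on ion-exchange resin.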
Procedure: as §2, §3
Assay [4] concerns L5/L6 spinal nerve ligation. Kind of assay: Chung spinal nerve ligation (SNL) model of neuropathic pain. It counts as in vivo. The settings on record: rats; for tactile hyperthesia: L5/L6 spinal nerve ligation, FIGS. 20 and 22; for thermal hyperalgesia: one standard dose (10 mg/kg) injected IP, FIG. 19, 21. The procedure: (a) Chung Model of Injury-induced Neuropathic-like Pain: The experimental designs for the Chung Spinal Nerve Ligation SNL Model assay for neuropathic pain are depicted in FIG. 18. Nerve ligation injury was performed according to the method described by Kim and Chung (Kim and Chung, Pain 50:355-363, 1992). This technique produces signs of neuropathic dysesthesias, including tactile allodynia, thermal hyperalgesia, and guarding of the affected paw. Rats were anesthetized with halothane and the vertebrae over the L4 to S2 region were exposed. The L5 and L6 spinal nerves were exposed, carefully isolated, and tightly ligated with 4-0 silk suture distal to the DRG. After ensuring homeostatic stability, the wounds were sutured, and the animals allowed to recover in individual cages. Sham-operated rats were prepared in an identical fashion except that the L5/L6 spinal nerves were not ligated. […] After a period of recovery following the surgical intervention, rats show enhanced sensitivity to painful and normally non-painful stimuli.

Another assay has as its target Rat nNOS (Rattus norvegicus (Rat), UniProt P29476). The assay is described as follows: Rat nNOS hemoglobin capture assay. As to conditions: Table 2a. The class given is biochemical. An excerpt: (§1) The NOS isoforms used in this example were recombinant enzymes expressed in E. coli. Rat nNOS was expressed and purified as described previously (Roman et al., Proc. Natl. Acad. Sci. USA 92:8428-8432, 1995). The bovine eNOS isoform was isolated as reported (Martasek et al., Biochem. Biophys. Res. Commun. 219:259-365, 1996) and murine macrophage iNOS was expressed and isolated according to the procedure of Hevel et al. (J. Biol. Chem. 266:22789-22791, 1991). IC50 values and percent inhibition of NOS by the compounds of the invention were determined under initial velocity measurement conditions with the hemoglobin capture assay as previously described (Hevel and Marletta, Methods Enzymol. 133:250-258, 1994). In this assay, nitric oxide reacts with oxyhemoglobin to yield methemoglobin, which was detected at 401 nm (e=19,700 M^−1 cm^−1) on a Perkin-Elmer Lamda 10 UV/vis spectrophotometer. The assays were performed using varying test compound concentrations. Assay mixtures for nNOS or eNOS contained […], 1.6 mM CaCl2, 11.6 mg/mL calmodulin, […], 6.5 mM BH4 and […] in 100 mM Hepes (pH 7.5). Assay mixtures for iNOS contained 10 mM of L-arginine, […], 6.5 mM BH4 and […] in 100 mM Hepes (pH 7.5). All assays were conducted in a final volume of 600 μL and were initiated with enzyme.

For the next assay, the target named is bovine eNOS (Bos taurus (Bovine), UniProt P29473). The assay is described as follows: Bovine eNOS hemoglobin capture assay. It counts as biochemical. The settings on record: Table 2a; hemoglobin capture assay; read-out: Bovine eNOS.
From the text: as §1

In a further assay the target is 5-HT1B (Rattus norvegicus (Rat), UniProt P28564). The assay is described as follows: 5-HT1B binding assay (agonist radioligand), rat cerebral cortex. How it is done:
5-HT1D binding assays (agonist radioligand)were performed using bovine caudate membranes according to the methods of Heuring and Peroutka (J. Neurosci 1987, 7: 894-903). 5-HT1B (rat cerebral cortex) binding assays (agonist radioligand) were performed according to the method of Hoyer et. al. (Eur. J. Pharmacol. 1995, 118: 1-12). For the purpose of result analysis, the specific ligand binding to the receptors is defined as the difference between the total binding and the nonspecific binding as determined in the presence of an excess of unlabelled ligand. The results are expressed as a percent of control specific binding obtained in the presence of the test compounds. IC50 values (concentration causing a half-maximal inhibition of control specific binding) and Hill coefficients (nH) were determined by non-linear regression analysis of the competition curves using Hill equation curve fitting and the inhibition constants (Ki) were calculated from the Cheng Prusoff equation (Ki=IC50/(1+(L/KD)), where L=concentration of radioligand in the assay, and KD=affinity of the radioligand for the receptor).

A further assay deals with hindpaw allodynia. The assay is described as follows: Experimental migraine model, inflammatory soup on dura, hindpaw allodynia.
Where [5] appears, read: read-out: nNOSh, Table I, human NOS, dihydrochloride or monohydrochloride salts.
[6] abbreviates: Table I, human NOS, dihydrochloride or monohydrochloride salts, read-out: iNOSh.
[7] abbreviates: read-out: eNOSh, Table I, human NOS, dihydrochloride or monohydrochloride salts.
Setting [8] is: read-out: nNOSh, Table II, human NOS, dihydrochloride or monohydrochloride salts.
Setting [9] is: read-out: eNOSh, Table II, human NOS, dihydrochloride or monohydrochloride salts.

Chain of 5-HT1B (P28564 whole entry): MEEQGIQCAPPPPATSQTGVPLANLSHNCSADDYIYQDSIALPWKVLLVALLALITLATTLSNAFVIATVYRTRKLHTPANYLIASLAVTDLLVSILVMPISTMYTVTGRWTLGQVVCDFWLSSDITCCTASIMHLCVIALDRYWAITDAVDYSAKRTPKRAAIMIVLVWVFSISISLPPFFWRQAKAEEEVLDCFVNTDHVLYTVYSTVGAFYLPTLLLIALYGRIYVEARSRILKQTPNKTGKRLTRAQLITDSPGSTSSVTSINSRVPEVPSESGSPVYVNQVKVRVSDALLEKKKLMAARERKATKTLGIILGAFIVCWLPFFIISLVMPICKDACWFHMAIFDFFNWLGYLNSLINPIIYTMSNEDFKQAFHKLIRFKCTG

In the case of `CN1CCCC1CCn1ccc2ccc(NC(=N)c3cccs3)cc21` (stereo not drawn) [32(+)], the IC50 in assay [1] (read-out: Human nNOS, Table 2b) turned out to be 320 nM; in assay [2] (Table 2b, read-out: Human iNOS) it was 72.8 µM; in assay [3] (read-out: Human eNOS, Table 2b), 16 µM. In assay [4], the tactile hyperthesia entry is “reversal of tactile hyperthesia”. Also, in assay [4], the thermal hyperalgesia entry was “clear antihyperalgesic effect”.

In the case of `CN1CCCC1CCn1ccc2ccc(NC(=N)c3cccs3)cc21` (stereo not drawn) [32(−)], the IC50 in assay [1] (read-out: Human nNOS, Table 2b) stood at 200 nM; in assay [2] (Table 2b, read-out: Human iNOS), 72.6 µM; in assay [3] (read-out: Human eNOS, Table 2b) it was 24 µM. Also, the tactile hyperthesia result in assay [4] is on record as “reversal of tactile hyperthesia”. Also, in assay [4], the thermal hyperalgesia result was “clear antihyperalgesic effect”.

Take `N=C(Nc1ccc2[nH]ccc2c1)c1cccs1` [Compound 5]: the figures for the IC50 on Rat nNOS and at bovine eNOS were 57.6 µM and 643 µM, respectively.

On to `N=C(Nc1ccc2ccn(CCN3CCCCC3)c2c1)c1cccs1` [Compound 37], for which the IC50 in assay [1] (read-out: Human nNOS, Table 2b) worked out at 490 nM; in assay [2] (Table 2b, read-out: Human iNOS), 21 µM; in assay [3] (read-out: Human eNOS, Table 2b), 3.8 µM.

For the compound `CN1CCC(c2c[nH]c3ccc(NC(=N)c4cccs4)cc23)CC1` [Compound 43, N-(3-(1-methylpiperidin-4-yl)-1H-indol-5-yl)thiophene-2-carboximidamide], in assay [1] (Table I), the e/n worked out at 17. The IC50 in assay [1] (setting [5]) stood at 1880 nM; in assay [2] (setting [6]) it was 58 µM; in assay [3] (setting [7]), 32.6 µM.

On to `CN1CC=C(c2c[nH]c3ccc(NC(=N)c4ccco4)cc23)CC1` [Compound 46, N-(3-(1-methyl-1,2,3,6-tetrahydropyridin-4-yl)-1H-indol-5-yl)furan-2-carboximidamide], for which the e/n in assay [1] (Table I) was 31. Further, the IC50 worked out at 1780 nM in assay [1] (setting [5]), 58 µM in assay [2] (setting [6]) and 54 µM in assay [3] (setting [7]).

As to `CN1CCC(c2c[nH]c3ccc(NC(=N)c4ccco4)cc23)CC1` [Compound 47, N-(3-(1-methylpiperidin-4-yl)-1H-indol-5-yl)furan-2-carboximidamide], the IC50 in assay [1] (setting [5]) worked out at 2240 nM; in assay [2] (setting [6]), 55 µM; in assay [3] (setting [7]), 97.4 µM.

Regarding `CN1CC=C(c2c[nH]c3ccc(CNC(=N)c4cccs4)cc23)CC1` [Compound 51, N-((3-(1-methyl-1,2,3,6-tetrahydropyridin-4-yl)-1H-indol-5-yl)methyl)thiophene-2-carboximidamide], in assay [1] (Table I), the e/n was determined as 42. For the same compound, the results for the IC50 in assay [1] (setting [5]), in assay [2] (setting [6]) and in assay [3] (setting [7]) were 1190 nM, 85 µM and 49.7 µM, respectively.

As for `CN(C)CCCc1c[nH]c2ccc(NC(=N)c3cccs3)cc12` [Compound 56, N-(3-(3-(dimethylamino)propyl)-1H-indol-5-yl)thiophene-2-carboximidamide], the IC50 in assay [1] (setting [5]) was determined as 410 nM; in assay [2] (setting [6]), 5.6 µM; in assay [3] (setting [7]) it was 15.1 µM.

Consider `CN1CCC[C@@H]1Cc1c[nH]c2ccc(NC(=N)c3cccs3)cc12` [Compound 97, (R)-N-(3-((1-Methylpyrrolidin-2-yl)methyl)-1H-indol-5-yl)thiophene-2-carboximidamide], for which, in assay [1] (Table I), the e/n is 41. The values for the IC50 (in assay [1] (setting [5]); on 5-HT1B; in assay [3] (setting [7])) were 840 nM, 310 nM and 34.5 µM, respectively. Further, the “development of hindpaw allodynia” value in the assay with hindpaw allodynia (6 mg/kg i.v. 10 minutes prior to IS) is recorded as “prevents the development of hindpaw allodynia”.

For `CN1CCC[C@H]1Cc1c[nH]c2ccc(NC(=N)c3cccs3)cc12` [Compound 105, (S)-N-(3-((1-methylpyrrolidin-2-yl)methyl)-1H-indol-5-yl)thiophene-2-carboximidamide], the e/n in assay [1] (Table I) was 29. The IC50 came out at 820 nM in assay [1] (setting [5]), 290 nM at 5-HT1B and 23 µM in assay [3] (setting [7]).

With `CN1CCC(c2c[nH]c3ccc(NC(=N)c4cccs4)cc23)C1` (stereo not drawn) [Compound 110, N-(3-(1-methylpyrrolidin-3-yl)-1H-indol-5-yl)thiophene-2-carboximidamide], the e/n in assay [1] (Table I) was found to be 90. Also, the IC50 is 430 nM in assay [1] (setting [5]), 490 nM on 5-HT1B and 39 µM in assay [3] (setting [7]).

Turning to `CN1CCC(c2c[nH]c3ccc(NC(=N)c4ccco4)cc23)C1` (stereo not drawn) [Compound 111, N-(3-(1-methylpyrrolidin-3-yl)-1H-indol-5-yl)furan-2-carboximidamide], the IC50 in assay [1] (setting [5]) turned out to be 1240 nM; on 5-HT1B, 1100 nM; in assay [3] (setting [7]), 33.8 µM.

On to `CN(C)CCCn1ccc2ccc(NC(=N)c3cccs3)cc21` [Compound 160], for which the e/n in assay [1] (Table II) was found to be 2.11. The IC50 in assay [1] (setting [8]) was 2730 nM; in assay [3] (setting [9]), 5.77 µM.

As for `CNCCCn1ccc2ccc(NC(=N)c3cccs3)cc21` [Compound 161], the e/n in assay [1] (Table II) came out at 5.57. In addition, the IC50 in assay [1] (setting [8]) was 1780 nM; in assay [3] (setting [9]), 9.91 µM.

As to `CN1CCCC1CCn1c(Cc2ccccc2)cc2ccc(NC(=N)c3cccs3)cc21` (stereo not drawn) [Compound 162], the e/n in assay [1] (Table II) is reported as 14.3. Besides, the IC50 is 2300 nM in assay [1] (setting [8]) and 33 µM in assay [3] (setting [9]).

Take `N=C(Nc1ccc2ccn(CCCCn3ccnc3)c2c1)c1cccs1` [Compound 167]: the e/n in assay [1] (Table II) came to 3.74. In addition, the figures for the IC50 in assay [1] (setting [8]) and in assay [3] (setting [9]) were 1220 nM and 4.56 µM, respectively.

Regarding `N=C(Nc1ccc2ccn(CCCCn3ccnc3)c2c1)c1cccs1` [Compound 168, N-(1-(4-(1H-imidazol-1-yl)butyl)-1H-indol-6-yl)thiophene-2-carboximidamide], the e/n in assay [1] (Table II) came out at 9.6. In addition, the figures for the IC50 in assay [1] (setting [8]) and in assay [3] (setting [9]) were 260 nM and 2.53 µM, respectively.

As for `N=C(Nc1ccc2[nH]cc(CCCN3CCOCC3)c2c1)c1cccs1` [Compound 181, N-(3-(3-morpholinopropyl)-1H-indol-5-yl)thiophene-2-carboximidamide], in assay [1] (Table I), the e/n is 9.9. The IC50 in assay [1] (setting [5]) was 2000 nM; in assay [2] (setting [6]), 9.9 µM; in assay [3] (setting [7]), 31 µM.

Turning to `N=C(Nc1ccc2ccn(CCCN3CCOCC3)c2c1)c1ccsc1` [Compound 182], the e/n in assay [1] (Table II) is listed as 12.1. The values for the IC50 in assay [1] (setting [8]) and in assay [3] (setting [9]) were 1400 nM and 17 µM, respectively.

Turning to `N=C(Nc1ccc2ccn(CCCN3CCOCC3)c2c1)c1ccco1` [Compound 183], the e/n in assay [1] (Table II) was determined as 14.2. The figures for the IC50 in assay [1] (setting [8]) and in assay [3] (setting [9]) were 2400 nM and 34 µM, respectively.

For `N=C(Nc1ccc2ccn(CCCN3CCOCC3)c2c1)c1ccoc1` [Compound 184], the e/n in assay [1] (Table II) turned out to be 19. The IC50 worked out at 1000 nM in assay [1] (setting [8]) and 19 µM in assay [3] (setting [9]).

In the case of `CNS(=O)(=O)Cc1ccc2[nH]cc(CCN(C)C)c2c1` [Sumatriptan, reference compound], in the assay on hindpaw allodynia (1 mg/kg s.c. 5 minutes prior to soup, two hours after IS), the “development of hindpaw allodynia” value is listed as “prevention of the development of hindpaw allodynia”.
